According to patent EP3959993B1, “METHOD FOR SOLVENT FREE PRODUCTION OF AROMA CONCENTRATES” (Symrise AG, priority 2020, dated 2022):

Assay: Second oil phase obtained by adding NaCl to the water phase (Example 4)
Type: physicochemical
Settings: after separating oil phases I and II
Protocol: Cross linked polystyrene was used as adsorbent material. The volume flux for loading the adsorbent was 300 ml/min.
The adsorbent was heated to 150 °C, the temperature of the applied water steam was 160 °C.
The water steam flux was 10 g/min and was applied for 100 min.
The oil and water phases were separated.
A second oil phase was separated and was collected.

Row | Structure (SMILES) | Loss in the water phase
1 | CCCCCC=O [hexanal] | 0,0%
2 | CCC/C=C/C=O [trans-2-hexenal] | 12,5%
3 | CC/C=C/CCO [trans-3-hexenol] | 2,7%
4 | CCCC(=O)OCC [ethyl butyrate] | 1,3%
5 | CCCCCO [pentanol] | 15,4%
6 | CCCCCCCO [heptanol] | 0,0%
7 | CCOC(C)=O [ethyl acetate] | 54,8%
8 | CCCCCC(=O)O [caproic acid] | 2,1%
9 | CCOC(=O)C(C)CC (stereo not shown) [ethyl 2-methyl butyrate] | 0,0%
10 | CC/C=C\CCO [cis-3-hexenol] | 10,8%

Assay: Influence of the amount of NaCl on the distribution between oil phase and water phase (Example 5)
Type: physicochemical
Settings: NaCl 0%

Row | Structure (SMILES) | Distribution in [%] between oil phase and water phase after condensation: Oil phase | Distribution in [%] between oil phase and water phase after condensation: Water phase
11 | CCCCCC=O [hexanal] | 100% | 0%
12 | CCC/C=C/C=O [trans-2-hexenal] | 35.5% | 64.5%
13 | CC/C=C/CCO [trans-3-hexenol] | 51.8% | 48.2%
14 | CCCC(=O)OCC [ethyl butyrate] | 49.4% | 50.6%
15 | CCCCCO [pentanol] | 29.5% | 70.5%
16 | CCCCCCCO [heptanol] | 76.2% | 23.8%
17 | CCOC(C)=O [ethyl acetate] | 10.4% | 89.6%
18 | CCCCCC(=O)O [caproic acid] | 43.5% | 56.5%
19 | CCOC(=O)C(C)CC (stereo not shown) [ethyl 2-methyl butyrate] | 66.1% | 33.9%
20 | CC/C=C\CCO [cis-3-hexenol] | 30.6% | 69.4%

Same assay, conditions: NaCl 27.8 %

Row | Structure (SMILES) | Distribution in [%] between oil phase and water phase after condensation: Oil phase | Distribution in [%] between oil phase and water phase after condensation: Water phase
21 | CCCCCC=O [hexanal] | 100% | 0%
22 | CCC/C=C/C=O [trans-2-hexenal] | 63.6% | 36.4%
23 | CC/C=C/CCO [trans-3-hexenol] | 84% | 16%
24 | CCCC(=O)OCC [ethyl butyrate] | 85.1% | 14.9%
25 | CCCCCO [pentanol] | 56.8% | 43.2%
26 | CCCCCCCO [heptanol] | 100% | 0%
27 | CCOC(C)=O [ethyl acetate] | 20.8% | 79.2%
28 | CCCCCC(=O)O [caproic acid] | 84.9% | 15.1%
29 | CCOC(=O)C(C)CC (stereo not shown) [ethyl 2-methyl butyrate] | 95% | 5%
30 | CC/C=C\CCO [cis-3-hexenol] | 62.8% | 37.2%

Same assay, conditions: NaCl 41.67%

Row | Structure (SMILES) | Distribution in [%] between oil phase and water phase after condensation: Oil phase | Distribution in [%] between oil phase and water phase after condensation: Water phase
31 | CCCCCC=O [hexanal] | 100% | 0%
32 | CCC/C=C/C=O [trans-2-hexenal] | 71.5% | 28.5%
33 | CC/C=C/CCO [trans-3-hexenol] | 90.5% | 9.5%
34 | CCCC(=O)OCC [ethyl butyrate] | 92.9% | 7.1%
35 | CCCCCO [pentanol] | 67.2% | 32.8%
36 | CCCCCCCO [heptanol] | 100% | 0%
37 | CCOC(C)=O [ethyl acetate] | 30.3% | 69.7%
38 | CCCCCC(=O)O [caproic acid] | 91.5% | 8.5%
39 | CCOC(=O)C(C)CC (stereo not shown) [ethyl 2-methyl butyrate] | 97.9% | 2.1%
40 | CC/C=C\CCO [cis-3-hexenol] | 73.3% | 26.7%

Same assay, conditions: NaCl 55.56 %

Row | Structure (SMILES) | Distribution in [%] between oil phase and water phase after condensation: Oil phase | Distribution in [%] between oil phase and water phase after condensation: Water phase
41 | CCCCCC=O [hexanal] | 100% | 0%
42 | CCC/C=C/C=O [trans-2-hexenal] | 76.8% | 23.2%
43 | CC/C=C/CCO [trans-3-hexenol] | 93.6% | 6.4%
44 | CCCC(=O)OCC [ethyl butyrate] | 95.4% | 4.6%
45 | CCCCCO [pentanol] | 73.8% | 26.2%
46 | CCCCCCCO [heptanol] | 100% | 0%
47 | CCOC(C)=O [ethyl acetate] | 33.2% | 66.8%
48 | CCCCCC(=O)O [caproic acid] | 94.9% | 5.1%
49 | CCOC(=O)C(C)CC (stereo not shown) [ethyl 2-methyl butyrate] | 98.8% | 1.2%
50 | CC/C=C\CCO [cis-3-hexenol] | 80.5% | 19.5%

Same assay, conditions: NaCl 69.44 %

Row | Structure (SMILES) | Distribution in [%] between oil phase and water phase after condensation: Oil phase | Distribution in [%] between oil phase and water phase after condensation: Water phase
51 | CCCCCC=O [hexanal] | 100% | 0%
52 | CCC/C=C/C=O [trans-2-hexenal] | 83.3% | 16.7%
53 | CC/C=C/CCO [trans-3-hexenol] | 96.2% | 3.8%
54 | CCCC(=O)OCC [ethyl butyrate] | 97.7% | 2.3%
55 | CCCCCO [pentanol] | 79.8% | 20.2%
56 | CCCCCCCO [heptanol] | 100% | 0%
57 | CCOC(C)=O [ethyl acetate] | 38.9% | 61.1%
58 | CCCCCC(=O)O [caproic acid] | 97% | 3%
59 | CCOC(=O)C(C)CC (stereo not shown) [ethyl 2-methyl butyrate] | 99.7% | 0.3%
60 | CC/C=C\CCO [cis-3-hexenol] | 85.6% | 14.4%

Same assay, conditions: NaCl 83.33 %

Row | Structure (SMILES) | Distribution in [%] between oil phase and water phase after condensation: Oil phase | Distribution in [%] between oil phase and water phase after condensation: Water phase
61 | CCCCCC=O [hexanal] | 100% | 0%
62 | CCC/C=C/C=O [trans-2-hexenal] | 87.5% | 12.5%
63 | CC/C=C/CCO [trans-3-hexenol] | 97.3% | 2.7%
64 | CCCC(=O)OCC [ethyl butyrate] | 98.7% | 1.3%
65 | CCCCCO [pentanol] | 84.6% | 15.4%
66 | CCCCCCCO [heptanol] | 100% | 0%
67 | CCOC(C)=O [ethyl acetate] | 45.2% | 54.8%
68 | CCCCCC(=O)O [caproic acid] | 97.9% | 2.1%
69 | CCOC(=O)C(C)CC (stereo not shown) [ethyl 2-methyl butyrate] | 100% | 0%
70 | CC/C=C\CCO [cis-3-hexenol] | 89.2% | 10.8%
